Laboratory results published in ChEMBL document CHEMBL1212896, “Discovery of novel cyanodihydropyridines as potent mineralocorticoid receptor antagonists” (J Med Chem, 2010).
In brackets after ≈: the same amount, converted by molar mass. Each block holds one compound with its values, some of them ahead of it.

Assays:
[1] = molecular target: T1, Mineralocorticoid receptor (Homo sapiens, UniProt P08235)
T1 sequence (P08235 whole entry): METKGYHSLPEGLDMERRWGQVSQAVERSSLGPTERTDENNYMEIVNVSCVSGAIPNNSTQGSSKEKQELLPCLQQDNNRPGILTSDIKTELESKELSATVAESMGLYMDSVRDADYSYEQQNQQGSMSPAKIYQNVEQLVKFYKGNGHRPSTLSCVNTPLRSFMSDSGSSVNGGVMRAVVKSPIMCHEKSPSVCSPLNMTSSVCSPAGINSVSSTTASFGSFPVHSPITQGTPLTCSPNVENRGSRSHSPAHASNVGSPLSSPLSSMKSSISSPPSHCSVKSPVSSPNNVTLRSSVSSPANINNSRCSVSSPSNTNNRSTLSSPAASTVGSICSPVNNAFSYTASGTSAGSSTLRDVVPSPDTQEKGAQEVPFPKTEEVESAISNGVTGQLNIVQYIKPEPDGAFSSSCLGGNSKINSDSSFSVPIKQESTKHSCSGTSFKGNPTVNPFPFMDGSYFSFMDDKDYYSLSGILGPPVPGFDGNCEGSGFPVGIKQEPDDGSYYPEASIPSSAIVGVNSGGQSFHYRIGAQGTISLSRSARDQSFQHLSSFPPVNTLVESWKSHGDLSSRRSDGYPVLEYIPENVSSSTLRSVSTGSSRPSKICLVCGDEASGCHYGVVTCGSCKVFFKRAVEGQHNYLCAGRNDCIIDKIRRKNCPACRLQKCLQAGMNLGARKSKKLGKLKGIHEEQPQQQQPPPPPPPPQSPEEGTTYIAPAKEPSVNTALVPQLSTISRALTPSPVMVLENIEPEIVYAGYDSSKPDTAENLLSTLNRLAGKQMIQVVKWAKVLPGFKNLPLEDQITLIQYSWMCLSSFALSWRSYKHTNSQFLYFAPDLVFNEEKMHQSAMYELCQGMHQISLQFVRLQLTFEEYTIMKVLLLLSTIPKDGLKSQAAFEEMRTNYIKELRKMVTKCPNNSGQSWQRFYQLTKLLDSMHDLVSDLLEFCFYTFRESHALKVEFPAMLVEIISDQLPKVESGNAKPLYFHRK
Description: Antagonist activity at mineralocorticoid receptor LBD expressed in human HUH7 cells coexpressing GAL4 by luciferase reporter gene assay

Glucocorticoid receptor = molecular target: T2, Glucocorticoid receptor (Homo sapiens, UniProt P04150); assay: Antagonist activity at glucocorticoid receptor LBD expressed in human HUH7 cells coexpressing GAL4 by luciferase reporter gene assay; format: functional, cell-based, Huh-7
T2 sequence (P04150 whole entry): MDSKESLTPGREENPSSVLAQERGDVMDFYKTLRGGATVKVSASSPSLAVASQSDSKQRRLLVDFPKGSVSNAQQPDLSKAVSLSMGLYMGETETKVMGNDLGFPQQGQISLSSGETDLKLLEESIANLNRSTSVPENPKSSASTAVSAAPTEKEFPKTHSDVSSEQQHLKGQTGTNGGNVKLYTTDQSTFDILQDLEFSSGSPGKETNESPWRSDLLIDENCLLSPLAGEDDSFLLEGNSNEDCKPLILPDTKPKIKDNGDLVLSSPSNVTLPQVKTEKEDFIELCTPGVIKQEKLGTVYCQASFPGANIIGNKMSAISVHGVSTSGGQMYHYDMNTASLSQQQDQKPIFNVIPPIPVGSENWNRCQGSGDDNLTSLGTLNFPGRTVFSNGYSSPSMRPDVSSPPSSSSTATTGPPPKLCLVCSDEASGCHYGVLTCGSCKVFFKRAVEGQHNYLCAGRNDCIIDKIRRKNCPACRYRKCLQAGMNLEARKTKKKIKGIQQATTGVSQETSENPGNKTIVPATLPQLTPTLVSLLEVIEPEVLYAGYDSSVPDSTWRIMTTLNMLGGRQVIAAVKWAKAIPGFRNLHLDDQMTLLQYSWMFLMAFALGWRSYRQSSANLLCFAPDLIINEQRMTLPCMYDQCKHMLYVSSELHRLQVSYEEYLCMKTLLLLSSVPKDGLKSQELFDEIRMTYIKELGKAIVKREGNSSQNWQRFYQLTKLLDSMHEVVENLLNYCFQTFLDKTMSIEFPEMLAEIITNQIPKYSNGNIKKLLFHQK

Progesterone receptor = molecular target: T3, Progesterone receptor (Homo sapiens, UniProt P06401); assay: Antagonist activity at progesterone receptor LBD expressed in human HUH7 cells coexpressing GAL4 by luciferase reporter gene assay; format: functional, cell-based, Huh-7
T3 sequence (P06401 whole entry): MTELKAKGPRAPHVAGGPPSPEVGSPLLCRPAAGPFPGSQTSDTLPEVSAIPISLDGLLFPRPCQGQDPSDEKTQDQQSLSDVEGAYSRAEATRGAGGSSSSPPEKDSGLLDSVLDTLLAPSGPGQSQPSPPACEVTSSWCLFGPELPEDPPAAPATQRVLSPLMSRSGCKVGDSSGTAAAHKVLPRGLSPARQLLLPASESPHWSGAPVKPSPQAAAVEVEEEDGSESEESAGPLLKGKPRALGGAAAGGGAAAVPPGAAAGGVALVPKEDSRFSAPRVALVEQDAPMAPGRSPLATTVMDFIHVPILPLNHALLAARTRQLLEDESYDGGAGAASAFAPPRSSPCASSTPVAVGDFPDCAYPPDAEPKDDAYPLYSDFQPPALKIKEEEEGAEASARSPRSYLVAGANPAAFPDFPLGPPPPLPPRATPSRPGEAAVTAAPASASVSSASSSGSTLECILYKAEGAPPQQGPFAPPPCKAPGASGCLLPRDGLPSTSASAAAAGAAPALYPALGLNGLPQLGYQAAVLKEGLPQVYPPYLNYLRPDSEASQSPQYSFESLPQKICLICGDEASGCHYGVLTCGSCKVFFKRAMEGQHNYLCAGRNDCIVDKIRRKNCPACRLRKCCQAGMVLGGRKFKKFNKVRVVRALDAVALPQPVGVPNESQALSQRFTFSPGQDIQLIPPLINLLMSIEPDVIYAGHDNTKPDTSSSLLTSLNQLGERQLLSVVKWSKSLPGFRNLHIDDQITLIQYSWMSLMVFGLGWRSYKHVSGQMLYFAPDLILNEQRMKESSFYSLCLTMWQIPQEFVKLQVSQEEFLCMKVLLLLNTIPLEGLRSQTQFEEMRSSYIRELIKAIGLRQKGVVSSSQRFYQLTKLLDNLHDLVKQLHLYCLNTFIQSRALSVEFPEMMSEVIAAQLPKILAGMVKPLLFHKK

Androgen receptor = molecular target: T4, Androgen receptor (Homo sapiens, UniProt P10275); assay: Antagonist activity at androgen receptor LBD expressed in human HUH7 cells coexpressing GAL4 by luciferase reporter gene assay; format: functional, cell-based, Huh-7
T4 sequence (P10275 whole entry): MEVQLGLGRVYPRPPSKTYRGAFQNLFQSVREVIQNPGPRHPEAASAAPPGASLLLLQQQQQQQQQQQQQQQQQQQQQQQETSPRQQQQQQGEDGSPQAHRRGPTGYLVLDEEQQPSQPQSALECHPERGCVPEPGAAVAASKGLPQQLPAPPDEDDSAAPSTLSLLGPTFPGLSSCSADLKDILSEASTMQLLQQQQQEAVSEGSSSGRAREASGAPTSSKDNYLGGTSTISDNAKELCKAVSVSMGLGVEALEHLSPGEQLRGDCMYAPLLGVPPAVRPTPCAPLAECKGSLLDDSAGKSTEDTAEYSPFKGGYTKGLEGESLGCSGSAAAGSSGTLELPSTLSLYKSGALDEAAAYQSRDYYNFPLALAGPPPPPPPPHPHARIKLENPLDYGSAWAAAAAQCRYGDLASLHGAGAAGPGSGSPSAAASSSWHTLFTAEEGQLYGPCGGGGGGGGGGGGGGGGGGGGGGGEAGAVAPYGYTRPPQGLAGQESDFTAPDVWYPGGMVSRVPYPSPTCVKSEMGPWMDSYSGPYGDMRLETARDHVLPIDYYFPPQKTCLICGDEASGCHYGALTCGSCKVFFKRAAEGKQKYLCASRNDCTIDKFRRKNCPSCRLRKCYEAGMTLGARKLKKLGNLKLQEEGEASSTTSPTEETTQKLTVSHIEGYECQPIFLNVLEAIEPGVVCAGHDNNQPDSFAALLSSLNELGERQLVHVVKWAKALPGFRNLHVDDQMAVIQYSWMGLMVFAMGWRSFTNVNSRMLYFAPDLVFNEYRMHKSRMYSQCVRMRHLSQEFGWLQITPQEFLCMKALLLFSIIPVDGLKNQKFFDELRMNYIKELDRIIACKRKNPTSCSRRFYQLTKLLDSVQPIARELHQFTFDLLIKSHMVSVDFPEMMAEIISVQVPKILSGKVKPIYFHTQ

Cytochrome P450 3A4 = Cytochrome P450 3A4 (Homo sapiens, UniProt P08684); assay: Inhibition of CYP3A4; format: ADME
Liver microsomes [2] = assay: Metabolic stability in human liver microsomes assessed as compound remaining; format: ADME, Microsome; further: time not given here
Cytochrome P450 2C9 = Cytochrome P450 2C9 (Homo sapiens, UniProt P11712); assay: Inhibition of CYP2C9; format: ADME
Liver microsomes [3] = assay: Metabolic stability in rat liver microsomes assessed as compound remaining; format: ADME, Microsome; further: time not given here
Cytochrome P450 2D6 = Cytochrome P450 2D6 (Homo sapiens, UniProt P10635); assay: Inhibition of CYP2D6; format: ADME
[4] = Solubility of the compound; format: physicochemical

Chain of Cytochrome P450 2D6 (P10635 whole entry): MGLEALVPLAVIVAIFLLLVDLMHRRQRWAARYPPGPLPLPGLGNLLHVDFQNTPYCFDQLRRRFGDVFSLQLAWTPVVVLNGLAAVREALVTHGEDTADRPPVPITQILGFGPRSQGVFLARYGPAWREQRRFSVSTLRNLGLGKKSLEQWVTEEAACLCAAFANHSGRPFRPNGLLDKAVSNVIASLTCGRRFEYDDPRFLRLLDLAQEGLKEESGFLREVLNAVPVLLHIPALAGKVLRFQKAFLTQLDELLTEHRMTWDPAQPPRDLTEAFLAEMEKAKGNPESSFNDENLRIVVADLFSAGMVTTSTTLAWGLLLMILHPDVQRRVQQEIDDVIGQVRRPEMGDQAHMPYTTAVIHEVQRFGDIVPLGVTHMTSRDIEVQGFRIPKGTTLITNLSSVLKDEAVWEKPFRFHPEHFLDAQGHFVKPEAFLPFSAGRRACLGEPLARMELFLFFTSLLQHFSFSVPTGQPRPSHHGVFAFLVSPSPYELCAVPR
Chain of Cytochrome P450 3A4 (P08684 whole entry): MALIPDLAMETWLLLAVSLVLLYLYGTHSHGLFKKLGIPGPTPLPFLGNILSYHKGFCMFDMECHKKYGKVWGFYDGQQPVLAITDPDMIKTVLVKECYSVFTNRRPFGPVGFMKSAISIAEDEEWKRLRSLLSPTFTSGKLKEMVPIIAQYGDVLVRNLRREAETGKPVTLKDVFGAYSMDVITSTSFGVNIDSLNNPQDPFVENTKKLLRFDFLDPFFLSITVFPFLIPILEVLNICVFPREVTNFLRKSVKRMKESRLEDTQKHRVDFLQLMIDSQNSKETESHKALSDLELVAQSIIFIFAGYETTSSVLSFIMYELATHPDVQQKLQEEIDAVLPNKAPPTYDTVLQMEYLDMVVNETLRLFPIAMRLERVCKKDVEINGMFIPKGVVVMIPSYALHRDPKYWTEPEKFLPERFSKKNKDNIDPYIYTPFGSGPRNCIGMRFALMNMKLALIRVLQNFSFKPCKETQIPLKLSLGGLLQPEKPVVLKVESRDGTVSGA
Chain of Cytochrome P450 2C9 (P11712 whole entry): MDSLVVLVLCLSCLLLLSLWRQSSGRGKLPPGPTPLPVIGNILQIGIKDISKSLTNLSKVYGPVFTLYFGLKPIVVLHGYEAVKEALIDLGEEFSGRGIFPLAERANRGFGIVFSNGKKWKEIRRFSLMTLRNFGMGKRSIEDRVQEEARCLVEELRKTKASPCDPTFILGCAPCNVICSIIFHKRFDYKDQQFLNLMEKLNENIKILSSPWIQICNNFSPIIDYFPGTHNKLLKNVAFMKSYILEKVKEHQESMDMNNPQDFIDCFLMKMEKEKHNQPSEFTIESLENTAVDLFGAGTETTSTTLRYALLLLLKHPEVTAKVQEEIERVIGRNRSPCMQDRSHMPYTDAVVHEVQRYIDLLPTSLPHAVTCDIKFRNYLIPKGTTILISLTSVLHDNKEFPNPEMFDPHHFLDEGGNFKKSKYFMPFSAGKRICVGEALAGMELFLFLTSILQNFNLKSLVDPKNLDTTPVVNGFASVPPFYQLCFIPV

- IC50 [1]: 852 nM
Structure (SMILES): COC(=O)C1=C(Cc2ccccc2)NC(C)=C(C#N)C1c1ccccc1Cl (stereo not drawn)

- IC50 [1]: 2790 nM
Structure (SMILES): COC(=O)C1=C(C)NC(C)=C(C(=O)OC(C)(C)C)C1c1cccc(C)c1 (stereo not drawn)

- IC50 (Glucocorticoid receptor): 3700 nM
- IC50 (Progesterone receptor): 7800 nM
- IC50 (Androgen receptor): 800 nM
- inhibition (INH) (Cytochrome P450 3A4): 30%
- Stability (Liver microsomes [2]): 0%
- inhibition (INH) (Cytochrome P450 2C9): 72%
- Stability (Liver microsomes [3]): 6%
- inhibition (INH) (Cytochrome P450 2D6): 6.8%
- IC50 [1]: 52 nM
Structure (SMILES): COC(=O)C1=C(C(F)(F)F)NC(C)=C(C#N)C1c1ccc(F)cc1Cl (stereo not drawn)

- IC50 [1]: 224 nM
Structure (SMILES): COC(=O)C1=C(C)NC(C)=C(C(=O)OC(C)(C)C)C1c1ccccc1C(F)(F)F (stereo not drawn)

- IC50 [1]: 319 nM
Structure (SMILES): COC(=O)C1=C(C)NC(C)=C(C(=O)OC(C)(C)C)C1c1ccc(Cl)cc1 (stereo not drawn)

- IC50 [1]: 3200 nM
Structure (SMILES): COC(=O)C1=C(C)NC(C)=C(C(=O)OC(C)(C)C)C1c1cccc(C#N)c1 (stereo not drawn)

- IC50 [1]: 288 nM
Structure (SMILES): COC(=O)C1=C(C)NC(C)=C(C(=O)OC(C)(C)C)C1c1ccc(F)cc1 (stereo not drawn)

- IC50 [1]: 1390 nM
Structure (SMILES): COC(=O)C1=C(C)NC(C)=C(C(=O)OC(C)(C)C)C1c1cccc(F)c1 (stereo not drawn)

Structure (SMILES): CCCC1=C(C(=O)OC)C(c2ccc(F)cc2Cl)C(C#N)=C(C)N1 (stereo not drawn)
- IC50 (Glucocorticoid receptor): 700 nM
- IC50 (Progesterone receptor): > 10000 nM
- IC50 (Androgen receptor): 100 nM
- Stability (Liver microsomes [2]): 4%
- Stability (Liver microsomes [3]): 4%
- solubility [4]: 5 µM (≈ 1.74 µg/mL)
- IC50 [1]: 16 nM

- IC50 [1]: 2620 nM
Structure (SMILES): COC(=O)C1=C(C)NC(C)=C(C(=O)OC(C)(C)C)C1c1ccc(OC)cc1 (stereo not drawn)

- IC50 [1]: 7430 nM
Structure (SMILES): CCCC1=C(C(=O)OC)C(c2ccccc2)C(C#N)=C(C)N1 (stereo not drawn)

- IC50 [1]: 232 nM
Structure (SMILES): CCC1=C(C(=O)OC)C(c2ccccc2Cl)C(C#N)=C(C)N1 (stereo not drawn)

- IC50 [1]: 518 nM
Structure (SMILES): COC(=O)C1=C(C)NC(C)=C(C(=O)OC(C)(C)C)C1c1cccc(Cl)c1 (stereo not drawn)

- IC50 [1]: 594 nM
Structure (SMILES): COC(=O)C1=C(C)NC(C)=C(C#N)C1c1ccccc1Cl (stereo not drawn)

- IC50 (Glucocorticoid receptor): 1600 nM
- IC50 (Progesterone receptor): 300 nM
- IC50 (Androgen receptor): 900 nM
- Stability (Liver microsomes [2]): 11%
- Stability (Liver microsomes [3]): 3%
- solubility [4]: < 5 µM
- IC50 [1]: 58 nM
Structure (SMILES): CCCCC1=C(C(=O)OC)C(c2ccccc2Cl)C(C#N)=C(C)N1 (stereo not drawn)

- IC50 [1]: 275 nM
Structure (SMILES): COC(=O)C1=C(C(F)(F)F)N(C)C(C)=C(C#N)C1c1ccc(F)cc1Cl (stereo not drawn)

- IC50 [1]: 1620 nM
Structure (SMILES): CCN1C(C)=C(C#N)C(c2ccc(F)cc2F)C(C(=O)OC(C)(C)C)=C1C (stereo not drawn)

- IC50 [1]: 621 nM
Structure (SMILES): COC(=O)C1=C(C)NC(C)=C(C(=O)OC(C)(C)C)C1c1ccccc1Cl (stereo not drawn)
